# Laboratory results from patent publication US20100105647A1 (priority 2007, published 2010).
# System: Alternaria brassicicola
# Test: Test of Preventive Effect on Japanese Radish Alternaria Leaf Spot
# Format: in vivo
# Details: Japanese radish (cultivar: Wase 40-nichi), foliage application 500 ppm, 1 day high humidity at 24° C. plus 3 days greenhouse
# Experimental: The controlling effect was evaluated by visually observing the area of lesion spots on each of test plants at the time of investigation and comparing the area of lesion spots on a plant treated with the present compound with that on an untreated plant.
# Test of Preventive Effect on Japanese Radish Alternaria Leaf Spot (Alternaria brassicicola)
# Each of plastic pots was filled with sandy loam and sown with Japanese radish (cultivar: Wase 40-nichi), followed by growing in a greenhouse for 5 days. Each of the present compounds 1-19, 21-40 and 41 was formulated into a flowable formulation according to Formulation Example 6. The flowable formulation was diluted to a predetermined concentration (500 ppm) with water, and foliage application of the dilution was carried out so that the dilution adhered sufficiently to the surfaces of leaves of the Japanese radish. After the foliage application, the plant was air-dried and then inoculated by spraying a water suspension of spores of Alternaria brassicicola. After the inoculation, the plant was held under high humidity conditions at 24° C. for 1 day and held in a greenhouse for 3 days, and then the area of lesion spots was investigated.
structure (smiles),measurement,value
C#CCOc1c(F)cc(C(=O)NCC2=CCCCC2)cc1F [compound 18],area of lesion spots on the treated plant relative to that on an untreated plant,≤ 30%
